Measured values published in PMC12643529 (ACS Infectious Diseases, 2025).

What was measured:
MRC-5 cells = experiment: alamarBlue cytotoxicity assay, MRC-5; format: cell-based; settings: 72 h
THP-1 cells = experiment: alamarBlue cytotoxicity assay, PMA-differentiated THP-1; format: cell-based, human; settings: PMA-differentiated THP-1, 72 h
[1] = system: bloodstream form of T. brucei; experiment: alamarBlue (resazurin) antitrypanosomal assay; format: cell-based, Trypanosoma brucei; settings: for selectivity index (SI) T. brucei: SI = IC50 MRC-5/IC50 T. brucei (resazurin assay); for IC50: bloodstream form, 72 h, alamarBlue/resazurin, error as σ
[2] = system: promastigote form of L. major; experiment: MTT-based antileishmanial assay, promastigotes; format: cell-based, Leishmania major; settings: for selectivity index (SI) L. major: SI = IC50 MRC-5/IC50 L. major promastigotes; for IC50: promastigotes, 72 h, MTT, error as σ
Protocol: The antileishmanial activity of the compounds against the promastigote form of L. major, the […] was determined using an MTT-based assay (Sigma-Aldrich). Stock solutions of the compounds were prepared in DMSO with the final DMSO percentage in each well maintained below 1%. 4 × 10^6 parasites per mL were incubated at 28 °C in 96-well plates (50 μL/well) either alone or in the presence of increasing concentrations of compounds DMSO for 72 h. After the incubation period, 10 μL of MTT (5 mg/mL) was added to each well, and the parasites were incubated for 4 h at 28 °C. Subsequently, cell lysis was performed using 50 μL/well of 20% SDS. […] Data were presented as the average of at least three independent measurements, each conducted under triplicate conditions. […] “single marker” […] S7

[3] = system: intracellular amastigote form of L. major; experiment: Luciferase assay, intracellular amastigotes in THP-1 macrophages; format: cell-based, Leishmania major; settings: for selectivity index (SI) THP-1: SI = IC50 THP-1/IC50 L. major amastigotes; for IC50: intracellular amastigotes in THP-1 macrophages, 72 h, luciferase
Protocol: The antileishmanial activity of the compounds against the intracellular form of L. major was evaluated using the Luciferase Assay System kit from Promega. THP-1 cells were seeded at a density of 3 × 10^5 cells/mL in 96-well plates (100 μL/well) and treated with 20 ng/mL PMA (phorbol 12-myristate 13-acetate, Sigma) for 48 h to induce differentiation. Postdifferentiation, the cells were washed, and fresh medium was added (100 μL/well) before being reincubated. Following an additional 24 h, the wells were washed, and 50 μL of L. major parasites at a density of 1.5 × 10^6 parasites/mL (suspended in RPMI-1640 medium 5% hiFBS and 5% penicillin/streptomycin) were added to the wells. The plates were then incubated at 35 °C in 5% CO2. After 24 h, the wells were washed three times with PBS, and fresh medium with increasing concentrations of compounds was added (100 μL/well). After another 72 h of incubation, the cells were then treated with 25 μL of lysis buffer and stored at −80 °C. Following 24 h, 25 μL of luciferase enzyme substrate was added to each well, and the luciferase activity of the amastigotes was determined using a TECAN Infinite F200 microplate reader. […] Data were presented as the average of at least three independent measurements, each conducted under triplicate conditions.
Parasite and cell culturing […]
Leishmania major (MHOM/IL/80/Friedlin) promastigotes and its derivative luminescent strain L. major LucRE9 with the luciferase gene integrated into the parasite genome (LUC) were cultured at 28 °C, 5 % CO2 in modified RPMI-1640 medium (Invitrogen, Carlsbad, CA) supplemented with 10 % hiFBS6, including […] blasticidin in the LucRE9 strain. 7 Parasites were maintained in culture in their […] growth phase (below 2 million T. brucei parasites per mL, ,10 million L. major parasites per mL for promastigotes experiments), and in the stationary phase , 20 million L. major parasites per mL for THP -1 infection experiments.
MRC-5 cell line (human lung fibroblast) was grown in monolayer at 37 °C, 5 % CO2 in DMEM medium (1 g/L glucose) supplemented with 10% hiFBS, 100 U/mL penicillin, […] streptomycin and 2 mM L-glutamine.8
THP-1 cells (human monocytic cell line) were maintained in RPMI-1640 medium supplemented with 10% heat-inactivated fetal bovine serum (hiFBS) and 5 % penicillin/streptomycin (37 °C, 5 % CO2, and 100 % humidity). […]

[4] = system: F21T Na+ (human telomeric G-quadruplex, sodium buffer); format: binding; settings: ligand 10 μM, oligonucleotide 200 nM, 100 mM NaCl
[5] = system: FEbr1T (T. brucei G-quadruplex); experiment: FRET melting assay, FEbr1T; format: binding; settings: ligand 10 μM, oligonucleotide 200 nM, 10 mM KCl
[6] = system: F10T (hairpin duplex DNA); format: binding; settings: ligand 10 μM, oligonucleotide 200 nM, 10 mM KCl
[7] = system: F21T K+ (human telomeric G-quadruplex, potassium buffer); format: binding; settings: ligand 10 μM, oligonucleotide 200 nM, 10 mM KCl
HeLa cells = experiment: alamarBlue antiproliferative assay, HeLa; format: cell-based, human; settings: for IC50: Homo sapiens, HeLa, 72 h, alamarBlue; for selectivity index (SI) HeLa: SI = IC50 MRC-5/IC50 HeLa
[8] = system: Fmt6363T (human mitochondrial G-quadruplex); experiment: FRET melting assay, Fmt6363T; format: binding; settings: ligand 10 μM, oligonucleotide 200 nM, 10 mM KCl
[9] = system: FMycT (c-Myc promoter G4); experiment: FRET melting assay, FMycT; format: binding; settings: ligand 10 μM, oligonucleotide 200 nM, 1 mM KCl
HT-29 cells = experiment: alamarBlue antiproliferative assay, HT-29; format: cell-based, human; settings: for IC50: Homo sapiens, HT-29, 72 h, alamarBlue; for selectivity index (SI) HT-29: SI = IC50 MRC-5/IC50 HT-29
[10] = system: F21T (DNA, G4) GGGTTAGGGTTAGGGTTAGGG; experiment: FRET melting; settings: 10 mM Li cacodylate, compound 10 µM, DNA 200 nM
[11] = system: FMycT (DNA, G4) TTGAGGGTGGGTAGGGTGGGTAA; experiment: FRET melting; settings: K+ (1 mM KCl), 99 mM LiCl; 10 mM Li cacodylate; compound 10 µM, DNA 200 nM
[12] = system: FEbr1T (DNA, G4) GGGCAGGGGGTGATGGGGAGGAGCCAGGG; experiment: FRET melting; settings: K+ (10 mM KCl), 90 mM LiCl; 10 mM Li cacodylate; compound 10 µM, DNA 200 nM

| Structure (SMILES) | selectivity index (SI) T. brucei [1] | selectivity index (SI) L. major [2] | ΔTm F21T Na+ [4] | ΔTm FEbr1T [5] | ΔTm F10T [6] | IC50 (MRC-5 cells; MRC5, human lung fibroblasts) | ΔTm F21T K+ [7] | IC50 (HeLa cells) | selectivity index (SI) HeLa (HeLa cells) | ΔTm Fmt6363T [8] | IC50 ([1]; Trypanosoma brucei) | ΔTm FMycT [9] | IC50 ([2]; Leishmania major) | IC50 (HT-29 cells) | selectivity index (SI) HT-29 (HT-29 cells) | also measured |
| --- | --- | --- | --- | --- | --- | --- | --- | --- | --- | --- | --- | --- | --- | --- | --- | --- |
| COS(=O)(=O)[O-].Cc1cc2c3c([n+](C)c4ccc(F)cc4c3c1)-c1cc(F)ccc1N2C [RHPS4, 3,11-Difluoro-6,8,13-Trimethyl-8H-Quino[4,3,2-Kl]Acridinium Methosulfate, reference compound] | 11.77 | 93.64 |  |  |  |  |  |  |  |  |  |  |  |  |  | IC50 (MRC-5 cells; human lung fibroblasts): 4120 ± 520 nM; IC50 (THP-1 cells): 214000 ± 3360 nM; IC50 [1]: 350 ± 60 nM; IC50 [2]: 44 ± 15 nM; selectivity index (SI) MRC-5 ([3]; SI = IC50 MRC-5/IC50 L. major amastigotes): 137.33; selectivity index (SI) THP-1 [3]: 7,131; IC50 [3]: 30 ± 20 nM |
| CN(C)c1ccc(/C=C/c2sc3ccccc3[n+]2C)c2ccccc12.[I-] [2g] |  | 23.9 | 3.4 ± 0.5 °C | 8.9 ± 0.5 °C | 0.4 ± 0.1 °C | 4010 ± 90 nM | 9.7 ± 0.2 °C | 29100 ± 1050 nM | 0.14 | 7.7 ± 0.3 °C | 20 ± 15 nM | 3.0 ± 1.1 °C | 170 ± 40 nM | 89500 ± 9550 nM | 0.04 | ΔTm ([10]; Na+ (100 mM NaCl)): 3.4 ± 0.5 °C; ΔTm [11]: 3.0 ± 1.1 °C |
| Cn1cccc1-c1ccc(/C=C/c2sc3ccccc3[n+]2C)s1 [compound 2f] | 6.0 | 6.0 |  |  |  | 3680 ± 170 nM |  |  |  |  | 610 ± 45 nM |  | 610 ± 92 nM |  |  |  |
| C[n+]1c(/C=C/c2ccc(N(c3ccccc3)c3ccccc3)cc2)sc2ccccc21.[I-] [compound 2c] |  |  | 9.4 ± 0.5 °C | 13.5 °C | 0.7 ± 0.1 °C |  | 12.7 ± 0.4 °C | 8890 ± 1590 nM | 0.58 | 10.2 ± 0.5 °C | 340 ± 130 nM | 8.6 ± 1.0 °C |  | 8910 ± 880 nM | 0.58 |  |
| C[C@@H]1[C@H](O)[C@@H](C)/C=C/C=C/C=C/C=C/C=C/C=C/C=C/[C@H](O[C@@H]2O[C@H](C)[C@@H](O)[C@H](N)[C@@H]2O)C[C@@H]2O[C@](O)(C[C@@H](O)C[C@@H](O)[C@H](O)CC[C@@H](O)C[C@@H](O)CC(=O)O[C@H]1C)C[C@H](O)[C@H]2C(=O)O [AmB, Amphotericin B] |  |  |  |  |  |  |  |  |  |  |  |  | 1920 ± 50 nM |  |  | IC50 (THP-1 cells; Homo sapiens): 9890 ± 1980 nM; IC50 ([3]; Leishmania major): 4410 ± 1960 nM; selectivity index (SI) THP-1 [3]: 2.24 |
| C[n+]1c(/C=C/c2ccccc2)sc2ccccc21.[I-] [compound 2a] | 5.5 | 4.2 |  |  |  | 2020 ± 120 nM |  |  |  |  | 370 ± 180 nM |  | 480 ± 110 nM |  |  |  |
| C[n+]1c(/C=C/c2ccc(-c3ccc(N(c4ccccc4)c4ccccc4)cc3)s2)sc2ccccc21 [compound 2i] | 2.12 | 86.2 |  |  |  | 3880 ± 170 nM |  |  |  |  | 1830 ± 60 nM |  | 45 ± 12 nM |  |  |  |
| C[n+]1c(/C=C/c2cc3c4c(c2)CCCN4CCC3)sc2ccccc21.[I-] [compound 2h] |  |  | 9.4 ± 0.3 °C | 14.1 °C | 0.9 ± 0.4 °C |  | 16.9 °C | 840 ± 10 nM | 0.09 | 15.0 ± 0.4 °C | 0.26 ± 0.17 nM | 12.6 ± 0.9 °C |  | 1000 ± 160 nM | 0.08 |  |
| Cn1cccc1/C=C/c1sc2ccccc2[n+]1C.[I-] [compound 2e] | 4.1 | 39.6 |  |  |  | 9400 ± 1060 nM |  | 78000 ± 8260 nM | 0.12 |  | 2290 ± 310 nM |  | 240 ± 29 nM | 76400 ± 1440 nM | 0.12 |  |
| C[n+]1c(/C=C/c2ccc(-c3ccc(-c4ccc(N(c5ccccc5)c5ccccc5)cc4)cc3)o2)sc2ccccc21.[I-] [compound 2d] |  | 9.8 | 22.9 ± 0.9 °C | 20.5 °C | 1.0 ± 0.1 °C | 3240 ± 140 nM | 18.5 °C | 5280 ± 110 nM | 0.62 | 18.5 ± 0.9 °C | 10 ± 5 nM | 16.7 ± 0.7 °C | 330 ± 17 nM | 3790 ± 130 nM | 0.86 | ΔTm [12]: 20.5 ± 1.3 °C; ΔTm ([10]; K+ (10 mM KCl), 90 mM LiCl): 18.5 ± 1.9 °C; ΔTm ([10]; Na+ (100 mM NaCl)): 22.9 ± 0.9 °C; ΔTm [11]: 16.7 ± 0.7 °C |
| CSc1ccc(OCc2ncc([N+](=O)[O-])n2C)cc1 [fexinidazole, reference compound] |  |  |  |  |  |  |  |  |  |  | 880 ± 20 nM |  |  |  |  |  |
| CCCCCCCCCCCCCCCCOP(=O)([O-])OCC[N+](C)(C)C [miltefosine] |  |  |  |  |  |  |  |  |  |  |  |  | 5710 ± 460 nM |  |  | IC50 (THP-1 cells; Homo sapiens): 55190 ± 110 nM; IC50 ([3]; Leishmania major): 5100 ± 560 nM; selectivity index (SI) THP-1 [3]: 10.82 |
| Cc1ccc(C(=O)Nc2ccc(S(=O)(=O)O)c3cc(S(=O)(=O)O)cc(S(=O)(=O)O)c23)cc1NC(=O)c1cccc(NC(=O)Nc2cccc(C(=O)Nc3cc(C(=O)Nc4ccc(S(=O)(=O)O)c5cc(S(=O)(=O)O)cc(S(=O)(=O)O)c45)ccc3C)c2)c1 [suramin, reference compound] |  |  |  |  |  |  |  |  |  |  | 4.2 ± 0.3 nM |  |  |  |  |  |
